# From US8802597B2, “Herbicidal pyrimidines” (E I du Pont de Nemours and Company, priority 2003, dated 2014)
# How the values were obtained:
# Test in all cases: Test G pre/postemergence
# Type in all cases: in vivo
# [1] = system: quackgrass (Elytrigia repens)
# Summary of the method: (§1)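 Greenhouse pre/postemergence screen with surfactant-containing solvent formulation; postemergence plants were 1- to 4-leaf stage. Percent control (0–100) was judged by eye against controls after 12–21 days.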
# [2] = system: pitted morningglory (Ipomoea lacunosa)
# Summary of the method: as §1
# [3] = system: common chickweed (Stellaria media)
# Summary of the method: as §1
# [4] = system: common mallow (Malva sylvestris)
# Summary of the method: as §1
# [5] = system: field bindweed (Convolvulus arvensis)
# Summary of the method: as §1
# [6] = system: barnyardgrass (Echinochloa crus-galli)
# Summary of the method: as §1
# [7] = system: green foxtail (Setaria viridis)
# Summary of the method: as §1
# [8] = system: broadleaf signalgrass (Brachiaria platyphylla)
# Summary of the method: as §1
# [9] = system: prickly sida (Sida spinosa)
# Summary of the method: as §1
# [10] = system: annual bluegrass (Poa annua)
# Summary of the method: as §1
# [11] = system: black mustard (Brassica nigra)
# Summary of the method: as §1
# [12] = system: goosegrass (Eleusine indica)
# Summary of the method: as §1
# [13] = system: large crabgrass (Digitaria sanguinalis)
# Summary of the method: as §1
# [14] = system: southern sandbur (Cenchrus echinatus)
# Summary of the method: as §1
# [15] = Postemergence, 250 g ai/ha, scale 0 to 100
# [16] = Postemergence, 500 g ai/ha, scale 0 to 100
# [17] = Postemergence, 62 g ai/ha, scale 0 to 100
# [18] = Postemergence, 125 g ai/ha, scale 0 to 100
# [19] = Postemergence, 375 g ai/ha, scale 0 to 100
# [20] = Preemergence, 62 g ai/ha, scale 0-100
# [21] = Preemergence, 125 g ai/ha, scale 0-100
# [22] = Preemergence, 250 g ai/ha, scale 0-100
# [23] = Preemergence, 500 g ai/ha, scale 0-100
# [24] = Preemergence, 500 g ai/ha, scale 0 to 100
# [25] = Preemergence, 375 g ai/ha, scale 0 to 100
compound,measurement,setting,value
"CCOC(=O)c1nc(C2CC2)nc(N)c1Br [Compound 1, ethyl 6-amino-5-bromo-2-cyclopropyl-4-pyrimidinecarboxylate]","Plant response rating, Quackgrass",[1]; [15],60
same,"Plant response rating, Quackgrass",[1]; [16],70
same,"Plant response rating, Quackgrass",[1]; [17],10
same,"Plant response rating, Quackgrass",[1]; [18],30
same,"Plant response rating, Quackgrass",[1]; [19],70
same,"Plant response rating, Quackgrass",[1]; [20],10
same,"Plant response rating, Quackgrass",[1]; [21],60
same,"Plant response rating, Quackgrass",[1]; [22],90
same,"Plant response rating, Quackgrass",[1]; [23],95
same,"Plant response rating, Quackgrass",[1]; [24],95
same,"Plant response rating, Morningglory",[2]; [15],100
same,"Plant response rating, Morningglory",[2]; [16],100
same,"Plant response rating, Morningglory",[2]; [17],100
same,"Plant response rating, Morningglory",[2]; [18],100
same,"Plant response rating, Morningglory",[2]; [19],100
same,"Plant response rating, Morningglory",[2]; [20],95
same,"Plant response rating, Morningglory",[2]; [21],100
same,"Plant response rating, Morningglory",[2]; [22],100
same,"Plant response rating, Morningglory",[2]; [23],100
same,"Plant response rating, Morningglory",[2]; [24],100
same,"Plant response rating, Chickweed",[3]; [15],95
same,"Plant response rating, Chickweed",[3]; [18],95
same,"Plant response rating, Chickweed",[3]; [19],100
same,"Plant response rating, Chickweed",[3]; [20],70
same,"Plant response rating, Chickweed",[3]; [21],95
same,"Plant response rating, Chickweed",[3]; [22],95
same,"Plant response rating, Chickweed",[3]; [24],100
same,"Plant response rating, Chickweed",[3]; [25],100
same,"Plant response rating, Mallow",[4]; [15],70
same,"Plant response rating, Mallow",[4]; [16],95
same,"Plant response rating, Mallow",[4]; [17],50
same,"Plant response rating, Mallow",[4]; [18],60
same,"Plant response rating, Mallow",[4]; [19],95
same,"Plant response rating, Mallow",[4]; [20],50
same,"Plant response rating, Mallow",[4]; [21],80
same,"Plant response rating, Mallow",[4]; [22],95
same,"Plant response rating, Mallow",[4]; [23],95
same,"Plant response rating, Mallow",[4]; [24],95
same,"Plant response rating, Bindweed, Field",[5]; [15],95
same,"Plant response rating, Bindweed, Field",[5]; [16],95
same,"Plant response rating, Bindweed, Field",[5]; [17],90
same,"Plant response rating, Bindweed, Field",[5]; [18],95
same,"Plant response rating, Bindweed, Field",[5]; [19],95
same,"Plant response rating, Bindweed, Field",[5]; [20],95
same,"Plant response rating, Bindweed, Field",[5]; [21],100
same,"Plant response rating, Bindweed, Field",[5]; [22],100
same,"Plant response rating, Bindweed, Field",[5]; [24],100
same,"Plant response rating, Bindweed, Field",[5]; [25],100
same,"Plant response rating, Barnyardgrass",[6]; [15],70
same,"Plant response rating, Barnyardgrass",[6]; [16],75
same,"Plant response rating, Barnyardgrass",[6]; [17],60
same,"Plant response rating, Barnyardgrass",[6]; [18],60
same,"Plant response rating, Barnyardgrass",[6]; [19],70
same,"Plant response rating, Barnyardgrass",[6]; [20],0
same,"Plant response rating, Barnyardgrass",[6]; [21],20
same,"Plant response rating, Barnyardgrass",[6]; [22],50
same,"Plant response rating, Barnyardgrass",[6]; [24],70
same,"Plant response rating, Barnyardgrass",[6]; [25],70
same,"Plant response rating, Foxtail, Green",[7]; [15],30
same,"Plant response rating, Foxtail, Green",[7]; [16],60
same,"Plant response rating, Foxtail, Green",[7]; [17],10
same,"Plant response rating, Foxtail, Green",[7]; [18],20
same,"Plant response rating, Foxtail, Green",[7]; [19],50
same,"Plant response rating, Foxtail, Green",[7]; [20],10
same,"Plant response rating, Foxtail, Green",[7]; [21],10
same,"Plant response rating, Foxtail, Green",[7]; [22],50
same,"Plant response rating, Foxtail, Green",[7]; [24],90
same,"Plant response rating, Foxtail, Green",[7]; [25],90
same,"Plant response rating, Signalgrass",[8]; [15],75
same,"Plant response rating, Signalgrass",[8]; [16],85
same,"Plant response rating, Signalgrass",[8]; [17],20
same,"Plant response rating, Signalgrass",[8]; [18],60
same,"Plant response rating, Signalgrass",[8]; [19],75
same,"Plant response rating, Signalgrass",[8]; [20],10
same,"Plant response rating, Signalgrass",[8]; [21],70
same,"Plant response rating, Signalgrass",[8]; [22],75
same,"Plant response rating, Signalgrass",[8]; [23],75
same,"Plant response rating, Signalgrass",[8]; [24],95
same,"Plant response rating, Prickly Sida",[9]; [15],90
same,"Plant response rating, Prickly Sida",[9]; [16],95
same,"Plant response rating, Prickly Sida",[9]; [17],70
same,"Plant response rating, Prickly Sida",[9]; [18],70
same,"Plant response rating, Prickly Sida",[9]; [19],95
same,"Plant response rating, Prickly Sida",[9]; [20],70
same,"Plant response rating, Prickly Sida",[9]; [21],100
same,"Plant response rating, Prickly Sida",[9]; [22],100
same,"Plant response rating, Prickly Sida",[9]; [23],100
same,"Plant response rating, Prickly Sida",[9]; [24],100
same,"Plant response rating, Bluegrass",[10]; [15],40
same,"Plant response rating, Bluegrass",[10]; [16],50
same,"Plant response rating, Bluegrass",[10]; [17],20
same,"Plant response rating, Bluegrass",[10]; [18],30
same,"Plant response rating, Bluegrass",[10]; [19],50
same,"Plant response rating, Bluegrass",[10]; [20],10
same,"Plant response rating, Bluegrass",[10]; [21],30
same,"Plant response rating, Bluegrass",[10]; [22],85
same,"Plant response rating, Bluegrass",[10]; [24],85
same,"Plant response rating, Black Mustard",[11]; [15],75
same,"Plant response rating, Black Mustard",[11]; [16],75
same,"Plant response rating, Black Mustard",[11]; [17],60
same,"Plant response rating, Black Mustard",[11]; [18],75
same,"Plant response rating, Black Mustard",[11]; [19],75
same,"Plant response rating, Black Mustard",[11]; [20],30
same,"Plant response rating, Black Mustard",[11]; [21],80
same,"Plant response rating, Black Mustard",[11]; [22],85
same,"Plant response rating, Black Mustard",[11]; [24],100
same,"Plant response rating, Black Mustard",[11]; [25],100
same,"Plant response rating, Goosegrass",[12]; [15],60
same,"Plant response rating, Goosegrass",[12]; [16],60
same,"Plant response rating, Goosegrass",[12]; [17],20
same,"Plant response rating, Goosegrass",[12]; [18],60
same,"Plant response rating, Goosegrass",[12]; [19],60
same,"Plant response rating, Goosegrass",[12]; [20],0
same,"Plant response rating, Goosegrass",[12]; [22],50
same,"Plant response rating, Goosegrass",[12]; [24],50
same,"Plant response rating, Goosegrass",[12]; [25],50
same,"Plant response rating, Crabgrass, Large",[13]; [15],70
same,"Plant response rating, Crabgrass, Large",[13]; [16],70
same,"Plant response rating, Crabgrass, Large",[13]; [17],50
same,"Plant response rating, Crabgrass, Large",[13]; [18],60
same,"Plant response rating, Crabgrass, Large",[13]; [19],70
same,"Plant response rating, Crabgrass, Large",[13]; [20],20
same,"Plant response rating, Crabgrass, Large",[13]; [21],30
same,"Plant response rating, Crabgrass, Large",[13]; [22],90
same,"Plant response rating, Crabgrass, Large",[13]; [24],90
same,"Plant response rating, Crabgrass, Large",[13]; [25],90
same,"Plant response rating, Sandbur",[14]; [15],95
same,"Plant response rating, Sandbur",[14]; [16],95
same,"Plant response rating, Sandbur",[14]; [17],30
same,"Plant response rating, Sandbur",[14]; [18],60
same,"Plant response rating, Sandbur",[14]; [19],95
same,"Plant response rating, Sandbur",[14]; [20],0
same,"Plant response rating, Sandbur",[14]; [21],30
same,"Plant response rating, Sandbur",[14]; [22],70
same,"Plant response rating, Sandbur",[14]; [23],85
same,"Plant response rating, Sandbur",[14]; [24],85
